Source: article PMC5547393, “Aromatase inhibitory activity of 1,4-naphthoquinone derivatives and QSAR study” (EXCLI Journal, 2017)

Legend:
[1] = molecular target: T1, recombinant human aromatase (CYP19) (Homo sapiens, UniProt P11511); experiment: Aromatase inhibition assay (Gentest kit, CYP19 with DBF fluorometric substrate); conditions: for Aromatase inhibitory activity category: category by experimental IC50
T1 sequence (P11511 1-503): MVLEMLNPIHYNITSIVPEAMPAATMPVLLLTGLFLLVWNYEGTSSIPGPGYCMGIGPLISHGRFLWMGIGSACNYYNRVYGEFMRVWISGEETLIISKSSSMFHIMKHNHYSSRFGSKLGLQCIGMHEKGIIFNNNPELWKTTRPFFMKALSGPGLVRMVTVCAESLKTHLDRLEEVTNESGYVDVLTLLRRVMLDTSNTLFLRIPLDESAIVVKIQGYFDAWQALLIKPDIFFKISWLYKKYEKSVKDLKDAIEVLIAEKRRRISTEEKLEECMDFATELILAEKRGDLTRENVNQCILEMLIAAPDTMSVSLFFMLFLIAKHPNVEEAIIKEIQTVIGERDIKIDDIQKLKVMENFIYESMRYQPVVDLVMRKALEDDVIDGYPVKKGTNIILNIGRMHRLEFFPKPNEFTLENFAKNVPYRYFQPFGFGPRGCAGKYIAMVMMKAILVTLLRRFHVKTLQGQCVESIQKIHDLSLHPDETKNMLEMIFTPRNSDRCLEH
Experimental: The assay was performed with a Gentest kit using enzyme CYP19 and DBF as a fluorometric substrate. DBF was dealkylated by aromatase and then hydrolyzed, yielding the fluorescein product. […] After the incubation at 37 °C for 30 min, the reaction was terminated by adding 50 µL of 2.2 N NaOH. […] The percentage of inhibition (% inhibition) was calculated using Equation 1. […] IC50 values were determined by plotting concentrations versus % inhibition.

MRC-5 cell line [2] = tested on: MRC-5 cell line; parameters: method as in Prachayasittikul et al., 2014[35]; conditions: normal MRC-5 cell line, ref Prachayasittikul et al., 2014[35], cited from earlier work; for IC50: read-out: MRC-5 (µM) cytotoxicity
MRC-5 cell line [3] = experiment: Cytotoxicity against the normal MRC-5 cell line; assay type: cell-based; conditions: MRC-5 cytotoxicity versus aromatase IC50
From the text: The cytotoxicity of compounds 1-11 against the normal MRC-5 cell line (Table 1(Tab. 1)) was previously documented (Prachayasittikul et al., 2014[35]).

aromatase = experiment: QSAR (MLR) prediction of aromatase inhibitory activity; conditions: for pIC50 fold greater than parent compound 1: predicted pIC50 versus experimental pIC50 0.301 of compound 1; for folds more potent than the compared analogue: pairs: 6c > 6, 7c > 7, 7a > 7, 6 > 6a, 7b > 7a, pIC50 based
From the text: Conceptually, a QSAR model was constructed using the data obtained from experimentally tested compounds (1-11). The constructed model was subsequently used to predict the activity of the additional set of structurally modified compounds (series 1-11) that were generated in silico.
Chemical structures of the tested compounds (1-11) along with their experimental IC50 values were used to construct the QSAR model. The IC50 values were converted to pIC50 values by taking the negative logarithm to base 10 (-log IC50) to obtain a normal distribution of data points.
The chemical structures of 11 tested compounds (1-11) and 39 structurally modified compounds (series 1-11) were drawn using the GaussView software (Dennington et al., 2003[11]). Optimization was performed to obtain the low-energy conformers for further calculation of molecular descriptor values. The compounds were geometrically optimized using Gaussian 09 (Frisch et al., 2009[13]) at the semi-empirical Austin Model 1 (AM1) level, followed by density functional theory (DFT) calculation using Becke's three-parameter hybrid method with the Lee-Yang-Parr correlation functional (B3LYP) together with the 6-31g(d) level. A set of 13 quantum chemical descriptors, i.e., mean absolute atomic charge (Qm), total energy (Etotal), total dipole moment (μ), highest occupied molecular orbital energy (EHOMO), lowest unoccupied molecular orbital energy (ELUMO), energy difference of HOMO and LUMO (HOMO-LUMOGap), electron affinity (EA), ionization potential (IP), Mulliken electronegativity (χ), hardness (η), softness (S), electrophilic index (ωi) and electrophilicity (ω), was extracted using a script developed in-house. The optimized structures were further calculated to obtain an additional set of 3,224 molecular descriptors using Dragon software version 5.5 (Talete, 2007[44]). The molecular descriptors obtained from the Dragon software included 22 classes, i.e., Constitutional descriptors, Topological descriptors, Walk and path counts, Connectivity indices, Information indices, 2D autocorrelation, Edge adjacency indices, Burden eigenvalues, Topological charge indices, Eigenvalue-based indices, Randic molecular profiles, Geometrical descriptors, RDF descriptors, 3D-MoRSE descriptors, WHIM descriptors, GETAWAY descriptors, Functional group counts, Atom-centered fragments, Charge descriptors, Molecular properties, 2D binary fingerprints and 2D frequency fingerprints.
Correlation-based feature selection was employed to initially select important descriptors from a large set of descriptors obtained from the calculation. The pair-correlation of each descriptor value and bioactivity (pIC50) was calculated using a Pearson's correlation coefficient (r) of 0.6 as a cut-off value. Descriptors with |r| < 0.6 were considered weakly correlated descriptors and were excluded from the study, whereas those with |r| ≥ 0.6 were selected for further selection process using stepwise multiple linear regression (MLR) as implemented in SPSS statistics 18.0 (SPSS Inc., USA[41]). Finally, a set of important descriptors was obtained for multivariate analysis.
Multivariate analysis was performed by Waikato Environment for Knowledge Analysis (WEKA) version 3.4.5 (Witten et al., 2011[47]) using a multiple linear regression (MLR) algorithm. Selected descriptor values and pIC50 values were assigned as independent variables (X) and dependent variables (Y), respectively. The MLR model was constructed according to Equation 2: […]
The data set was divided into a training set and a testing set by means of leave-one-out cross validation (LOO-CV). Conceptually, one sample was removed from the entire data set (N) and was used as the testing set, whereas the remaining samples (N-1) were used as the training set. The same sampling process was continued until every sample in the data set was used as the testing set to predict the variable Y (activity). […]

[4] = Aromatase inhibitory activity IC50, Inactive = % inhibition ≤ 50 % at 12.5 µM
[5] = Experimental aromatase inhibitory activity (pIC50), -log IC50 of the experimental IC50 values

IC50 [1, 4]	IC50 [1, 5]	SMILES	Aromatase inhibitory activity category [1]	IC50 (MRC-5 cell line [2])	SI (selectivity index) (MRC-5 cell line [3])	further results
5.3 µM	5.3 µM	CC(=O)c1ccc(NC2=C(Cl)C(=O)c3ccccc3C2=O)cc1 [Compound 7]	moderately active (moderately active (1 µM < IC50 < 10 µM))	12.3 ± 1.08 µM	2.32	
1.9 µM	1.9 µM	O=C1C(Cl)=C(Nc2ccc(Nc3ccccc3)cc2)C(=O)c2ccccc21 [Compound 8]	moderately active (moderately active (1 µM < IC50 < 10 µM))	20.8 ± 0.68 µM	10.94	
4.7 µM	4.7 µM	O=C1C(Cl)=C(Nc2cccc3cccnc23)C(=O)c2ccccc21 [Compound 9]	moderately active (moderately active (1 µM < IC50 < 10 µM))	13.6 ± 1.33 µM	2.89	
3.3 µM	3.3 µM	O=C1C(Cl)=C(NCCc2ccccc2)C(=O)c2ccccc21 [Compound 10]	moderately active (moderately active (1 µM < IC50 < 10 µM))			MRC-5 (µM) cytotoxicity (MRC-5 cell line [2]): non-cytotoxic

Further lines, the compound ahead of its results:

SMILES	IC50 [1, 4]	IC50 [1, 5]	Aromatase inhibitory activity category [1]	IC50 (MRC-5 cell line [2])	SI (selectivity index) (MRC-5 cell line [3])	further results
O=C1C(Cl)=C(Cl)C(=O)c2ccccc21 [Compound 1, 2,3-dichloro-1,4-naphthoquinone]	0.5 ± 0.3 µM	0.5 µM	highly active (highly active (IC50 < 1 µM))	23 ± 0.42 µM	45.98	IC50 fold lower than ketoconazole [1]: 5.2 fold
O=C1C(Br)=C(Br)C(=O)c2ccccc21 [Compound 1a]						pIC50 fold greater than parent compound 1 (aromatase): 1.83 fold
O=C1C(I)=C(I)C(=O)c2ccccc21 [Compound 1b]						pIC50 fold greater than parent compound 1 (aromatase): 11.90 fold; pIC50 fold greater than letrozole (aromatase; predicted pIC50 versus experimental pIC50 […] of letrozole): 1.03 fold
O=C1C(F)=C(F)C(=O)c2ccccc21 [Compound 1c]						pIC50 fold greater than parent compound 1 (aromatase): 2.04 fold
CCCCNC1=C(Cl)C(=O)c2ccccc2C1=O [Compound 2]	8.7 ± 0.9 µM	8.71 µM	moderately active (moderately active (1 µM < IC50 < 10 µM))			MRC-5 (µM) cytotoxicity (MRC-5 cell line [2]): non-cytotoxic
O=C1C(Cl)=C(Nc2ccccc2)C(=O)c2ccccc21 [Compound 3]			inactive	16.4 ± 1.28 µM		
CN(C1=C(Cl)C(=O)c2ccccc2C1=O)c1ccccc1 [Compound 4]	0.5 ± 0.4 µM	0.5 µM	highly active (highly active (IC50 < 1 µM))	8.6 ± 0.77 µM	17.20	
CCN(C1=C(Cl)C(=O)c2ccccc2C1=O)c1ccccc1 [Compound 4a]						pIC50 fold greater than parent compound 1 (aromatase): 1.08 fold; fold less potent than letrozole (aromatase; predicted pIC50 versus letrozole): 10.68 fold
O=C(O)c1ccccc1NC1=C(Cl)C(=O)c2ccccc2C1=O [Compound 5]	18 µM	18 µM	weak	86 ± 3.04 µM	4.78	
CN(C1=C(Cl)C(=O)c2ccccc2C1=O)c1ccc(C(=O)O)cc1 [Compound 5d]						folds more potent than ketoconazole (aromatase; predicted pIC50 -0.329 versus ketoconazole pIC50 -0.415): 1.26 folds
CC(=O)c1cccc(NC2=C(Cl)C(=O)c3ccccc3C2=O)c1 [Compound 6]	3.1 µM	3.1 µM	moderately active (moderately active (1 µM < IC50 < 10 µM))	15.5 ± 0.75 µM	5.01	folds more potent than the compared analogue (aromatase): 1.83 folds
CC(=O)c1cccc(N(C)C2=C(Cl)C(=O)c3ccccc3C2=O)c1 [Compound 6c]						folds more potent than the compared analogue (aromatase): 1.67 folds
O=C1C(Cl)=C(Nc2ccc(C(=O)C(F)(F)F)cc2)C(=O)c2ccccc21 [Compound 7a]						folds more potent than the compared analogue (aromatase): 1.47 folds
CN(C1=C(Cl)C(=O)c2ccccc2C1=O)c1ccc(C(=O)C(F)(F)F)cc1 [Compound 7b]						folds more potent than the compared analogue (aromatase): 2.28 folds
CC(=O)c1ccc(N(C)C2=C(Cl)C(=O)c3ccccc3C2=O)cc1 [Compound 7c]						folds more potent than the compared analogue (aromatase): 2.73 folds
COc1ccc(CCNC2=C(Cl)C(=O)c3ccccc3C2=O)cc1OC [Compound 11]			inactive			MRC-5 (µM) cytotoxicity (MRC-5 cell line [2]): non-cytotoxic
COc1cccc2c1C(=O)c1c(O)c3c(c(O)c1C2=O)C[C@@](O)(C(=O)CO)C[C@@H]3O[C@H]1C[C@H](N)[C@H](O)[C@H](C)O1 [Doxorubicin, reference compound]						MRC-5 (µM) cytotoxicity (MRC-5 cell line [2]): non-cytotoxic
